# Source: BindingDB's records for doi:10.1016/0006-291x(92)90654-4 (Veterans Affairs Medical Center, 1992)
# Biological target: 5-hydroxytryptamine receptor 1B (Homo sapiens, UniProt P28222)
# Sequence (P28222 whole entry): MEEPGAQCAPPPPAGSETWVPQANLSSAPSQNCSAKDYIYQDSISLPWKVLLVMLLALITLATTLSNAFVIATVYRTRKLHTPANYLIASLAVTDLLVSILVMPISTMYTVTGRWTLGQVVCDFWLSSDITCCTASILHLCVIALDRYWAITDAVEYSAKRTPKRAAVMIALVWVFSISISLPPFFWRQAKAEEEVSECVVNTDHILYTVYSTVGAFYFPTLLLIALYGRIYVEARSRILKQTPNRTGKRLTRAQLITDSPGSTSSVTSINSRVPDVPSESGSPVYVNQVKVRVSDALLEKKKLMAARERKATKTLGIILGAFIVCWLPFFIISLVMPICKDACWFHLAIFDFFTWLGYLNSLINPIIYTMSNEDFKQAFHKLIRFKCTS
row,SMILES,Ki [nM]
1,CN1C2CCC1CC(OC(=O)c1c[nH]c3ccccc13)C2 (stereo unspecified),> 10000
2,"COc1ccc2[nH]cc(C3=CCNCC3)c2c1 [5-Methoxy-3-(1,2,3,6-tetrahydro-pyridin-4-yl)-1H-indole(RU-24969)]",12.4
3,"CN1CC(C(=O)N[C@]2(C)O[C@@]3(O)C4CCCN4C(=O)[C@H](Cc4ccccc4)N3C2=O)CC2c3cccc4[nH]cc(c34)CC21 (stereo partly drawn) [7-Methyl-4,6,6a,7,8,9,10,10a-octahydro-indolo[4,3-fg]quinoline-9-carboxylic acid ((2R,5S,10bS)-5-benzyl-10b-hydroxy-2-methyl-3,6-dioxo-octahydro-oxazolo[3,2-a]pyrrolo[2,1-c]pyrazin-2-yl)-amide]",0.006
4,"O=C(CCCN1CCC2(CC1)C(=O)NCN2c1ccccc1)c1ccc(F)cc1 [8-[4-(4-fluorophenyl)-4-oxidanylidene-butyl]-1-phenyl-1,3,8-triazaspiro[4.5]decan-4-one]",> 10000
5,CN1CCN(c2nc3cc(C(F)(F)F)ccc3n3cccc23)CC1 [CAS_109028-10-6],0.04
6,CN1C[C@@H](NS(=O)(=O)N(C)C)C[C@@H]2c3cccc4c3c(cn4C)C[C@H]21 [MESULERGINE],640
7,CC(C)(C)NCC(O)COc1cccc2[nH]c(C#N)cc12 (stereo unspecified) [NSC_155346],22
8,Cc1cc(C(C)(C)C)c(O)c(C)c1CC1=NCCN1 [SMR000059324],0.26
9,FC(F)(F)c1cccc(N2CCNCC2)c1 [TFMPP],28
10,Clc1cccc(N2CCNCC2)c1 [mCPP],90
11,"CSc1ccc2c(c1)C(N1CCN(C)CC1)Cc1ccccc1S2 (stereo unspecified) [methanesulfonic acid;1-methyl-4-(3-methylsulfanyl-5,6-dihydrobenzo[b][1]benzothiepin-5-yl)piperazine]",0.2
